Broadly, the IC50 is the concentration that inhibits the measured activity by half. For orientation: melting point means the temperature, or range, at which the solid turns liquid.

Data set [1] concerns the target T1, recombinant human Cox-1 (r-hu Cox1) (Homo sapiens, UniProt P23219).
T1 construct: made in house; host or cells: baculovirus/Sf9 insect cells (microsomes)
The data set is described as follows: Recombinant human PGHS-1 enzyme assay (RHUCX1). It counts as biochemical. The note with it: for inhibition at 100 µM / inhibition at 10 µM: read-out: RHUCX1 % Inh. at Dose. Summed up: (§1)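 PGE2 by EIA (optical density) → % inhibition vs control-group mean → IC50 from linear regression.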

The target of data set [2] is T2, recombinant human Cox-2 (r-hu Cox-2) (Homo sapiens, UniProt P35354).
T2 construct: made in house; host or cells: baculovirus/Sf9 insect cells (microsomes)
T2 sequence (P35354 18-604): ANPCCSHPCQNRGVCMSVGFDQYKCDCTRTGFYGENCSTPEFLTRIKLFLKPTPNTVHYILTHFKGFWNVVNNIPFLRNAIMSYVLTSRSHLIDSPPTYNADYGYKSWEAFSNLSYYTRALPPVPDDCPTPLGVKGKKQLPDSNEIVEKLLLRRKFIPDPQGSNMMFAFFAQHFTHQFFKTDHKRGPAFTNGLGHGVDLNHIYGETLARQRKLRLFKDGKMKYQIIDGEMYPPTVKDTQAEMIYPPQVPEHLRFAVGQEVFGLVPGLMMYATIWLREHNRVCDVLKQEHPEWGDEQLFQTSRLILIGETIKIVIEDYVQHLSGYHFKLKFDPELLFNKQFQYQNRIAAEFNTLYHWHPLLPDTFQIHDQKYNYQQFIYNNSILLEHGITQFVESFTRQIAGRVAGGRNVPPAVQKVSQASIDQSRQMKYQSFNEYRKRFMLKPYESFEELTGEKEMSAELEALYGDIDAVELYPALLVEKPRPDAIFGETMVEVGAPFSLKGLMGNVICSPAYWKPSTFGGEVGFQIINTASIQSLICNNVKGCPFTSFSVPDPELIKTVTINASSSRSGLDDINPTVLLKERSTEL
As to the kind of experiment: Recombinant human PGHS-2 enzyme assay (RHUCX2). The class given is biochemical. The conditions noted are these: for IC50: read-out: RHUCX2 IC50 (parenthetical value); for inhibition at 0.01 µM / inhibition at 0.1 µM / inhibition at 1 µM: read-out: RHUCX2 % Inh. at Dose. Summed up:
as §1

The target of data set [3] is T3, human amnionic whole cell cyclooxygenase-2 (WISH cells) (Homo sapiens, UniProt P35354).
T3 construct: endogenous in cells; host or cells: human amnionic WISH cells, induced with IL-1beta
T3 sequence (P35354 18-604): T2 sequence (P35354 18-604)
As to the kind of experiment: IL-1β induced PGE2 production in WISH cells. It counts as cell-based. The note with it: read-out: Wish IC50 (parenthetical value). In a few lines:
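PGE2 was quantified by enzyme immunoassay (optical density read) against standards made up in the matching medium. WISH cells at 80% confluence, washed and placed in serum-free Neuman-Tytell medium, received 5 ng/ml IL-1β plus test compound or DMSO vehicle (0.01% v/v).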

The test system of data set [4] is air pouch prostaglandin biosynthesis (Cox-2). As to the kind of experiment: Carrageenan induced air pouch prostaglandin biosynthesis model (CAP). It counts as in vivo, rat. The note with it: 3 mpk, rat; for inhibition in vivo at 3 mg/kg: 4 h, read-out: CAP % Inhib. @ 3 mpk. Here is the method:
To compare the mean responses of the treatment groups, analysis of variance was applied. Percent inhibition values were determined by comparing the individual treatment mean values to the mean of the control group. Linear regression was used to estimate IC50's/ED50's in appropriate assays.
Carrageenan induced air pouch prostaglandin biosynthesis model (CAP) Air pouches are formed in the backs of male Sprague Dawley rats by injecting 20 mL of sterile air on day 0. Three days later the pouch was reinflated with an additional 10 mL of sterile air. On day 7, 1 mL of saline containing 0.2 % lambda carrageenan (Sigma Chemical Co.) is injected into the pouch to induce the inflammatory reaction that is characterized by the release of prostaglandins. Test compounds are dosed at 0.1 to 10 mg/kg 30 minutes prior to carrageenan. Four hours after the carrageenan injection the pouch is lavaged and levels of prostaglandins are determined by enzyme immuno-assay using commercially available kits. […] Values for Cox-2 inhibition that are parenthetical indicate ED50 values.

T1 sequence (P23219 24-599): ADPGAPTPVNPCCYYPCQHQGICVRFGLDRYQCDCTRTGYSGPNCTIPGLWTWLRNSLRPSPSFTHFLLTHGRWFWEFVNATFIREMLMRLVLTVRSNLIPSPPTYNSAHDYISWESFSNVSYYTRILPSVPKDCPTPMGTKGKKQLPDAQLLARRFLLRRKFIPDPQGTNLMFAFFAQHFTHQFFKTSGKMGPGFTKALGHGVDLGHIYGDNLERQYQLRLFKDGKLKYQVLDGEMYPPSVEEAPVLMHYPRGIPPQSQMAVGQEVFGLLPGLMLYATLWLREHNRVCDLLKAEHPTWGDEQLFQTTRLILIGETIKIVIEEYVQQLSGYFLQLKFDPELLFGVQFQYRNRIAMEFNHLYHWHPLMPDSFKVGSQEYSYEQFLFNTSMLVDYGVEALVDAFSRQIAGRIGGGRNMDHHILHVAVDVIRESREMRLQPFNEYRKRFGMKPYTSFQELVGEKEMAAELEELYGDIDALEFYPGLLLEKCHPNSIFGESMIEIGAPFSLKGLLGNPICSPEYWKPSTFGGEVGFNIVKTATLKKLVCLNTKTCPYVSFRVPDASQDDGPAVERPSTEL

For the compound “2-(2,3,3-Trifluorophenyl)-4-(4-fluorophenyl)-5-[4-(aminosulfonyl)phenyl]-3(2H)-pyridazinone [Example 450]”, the “RHUCX1 % Inh. at Dose (μM)” value in data set [1] (100 μM) is 29 @ 100%. Further, the “RHUCX2 % Inh. at Dose (μM)” value in data set [2] (0.01 μM) is 22 @ 0.01%; in data set [2] (0.1 μM), 40 @ 0.1%; in data set [2] (1 μM) it was 87 @ 1%. Also, the IC50 in data set [3] came out at 50 nM. The “CAP % Inhib. @ 3 mpk” value in data set [4] is recorded as 86%.

For `CC(C)COc1c(-c2ccc(S(C)(=O)=O)c(F)c2)cnn(-c2ccc(F)c(Cl)c2)c1=O` [Example 205, 2-(3-Chloro-4-fluorophenyl)-4-(2-methylpropoxy)-5-[3-fluoro-4-(methylsulfonyl)phenyl]-3(2H)-pyridazinone], the melting point was 142 to 144 °C. Also, the inhibition in vivo at 3 mg/kg in data set [4] was 54%.

For the compound `CS(=O)(=O)c1ccc(-c2cnn(-c3ccc(F)c(F)c3)c(=O)c2Cc2cccc(F)c2)cc1` [Example 243, 2-(3,4-Difluorophenyl)-4-(3-fluorobenzyl)-5-[4-(methylsulfonyl)phenyl]-3(2H)-pyridazinone], the melting point lay within 161 to 163 °C. For the same compound, in data set [3], the half-maximal inhibitory concentration (IC50) stood at 30 nM. Moreover, the inhibition in vivo at 3 mg/kg in data set [4] turned out to be 7%.

Consider `CS(=O)(=O)c1ccc(-c2cnn(-c3ccc(F)c(Cl)c3)c(=O)c2C2CCCCC2)cc1` [Example 246, 2-(3-Chloro-4-fluorophenyl)-4-cyclohexyl-5-[4-(methylsulfonl)phenyl]-3(2H)-pyridazinone], for which, in data set [1] (100 μM), the inhibition at 100 µM came to 0%. Also, the IC50 was determined as 54 nM in data set [2] and 20 nM in data set [3]. For the same compound, the inhibition in vivo at 3 mg/kg in data set [4] was 48%.

`CC(C)CCc1c(-c2ccc(S(C)(=O)=O)cc2)cnn(-c2ccc(F)c(Cl)c2)c1=O` [Example 257, 2-(3-Chloro-4-fluorophenyl)-4-(3-methylbutyl)-5-[4-(methylsulfonyl)phenyl]-3(2H)-pyridazinone] had a melting point of 55 to 58 °C. Besides, the inhibition at 100 µM in data set [1] (100 μM) is 0%. Besides, the IC50 in data set [2] worked out at 40 nM. Besides, the inhibition in vivo at 3 mg/kg in data set [4] turned out to be 60%.

Turning to `CC(C)COc1c(-c2ccc(S(C)(=O)=O)cc2)cnn(-c2ccc(F)c(F)c2)c1=O` [Example 346, 2-(3,4-Difluorophenyl)-4-(2-methylpropoxy)-5-[4-(methylsulfonyl)phenyl]-3(2H)-pyridazinone], the melting point fell in the range of 116 to 117 °C. Also, the inhibition at 100 µM in data set [1] (100 μM) was 14%. The inhibition at 0.01 µM in data set [2] (0.01 μM) is 48%. Moreover, the inhibition at 0.1 µM in data set [2] (0.1 μM) was determined as 76%. For the same compound, the inhibition at 1 µM in data set [2] (1 μM) was determined as 94%. Further, the inhibition in vivo at 3 mg/kg in data set [4] stood at 49.5%.

Regarding `CCC(C)CCOc1c(-c2ccc(S(C)(=O)=O)cc2)cnn(-c2ccc(F)c(F)c2)c1=O` (stereo not drawn) [Example 351, 2-(3,4-Difluorophenyl)-4-(3-methylpentyloxy)-5-[4-(methylsulfonyl)phenyl]-3(2H)-pyridazinone], the melting point was 100 to 102 °C. Further, in data set [1] (100 μM), the inhibition at 100 µM came to 3%. The inhibition at 0.01 µM in data set [2] (0.01 μM) was 42%. For the same compound, in data set [2] (0.1 μM), the inhibition at 0.1 µM came to 63%. Further, in data set [2] (1 μM), the inhibition at 1 µM came out at 91%. In addition, in data set [4], the inhibition in vivo at 3 mg/kg amounted to 0%.

`COC(C)CCOc1c(-c2ccc(S(C)(=O)=O)cc2)cnn(-c2ccc(F)c(F)c2)c1=O` (stereo not drawn) [Example 353, 2-(3,4-Difluorophenyl)-4-[3-(methoxy)butoxy]-5-[4-(methylsulfonyl)phenyl]-3(2H)-pyridazinone] yielded a melting point of 99 to 101 °C. Further, the inhibition at 100 µM in data set [1] (100 μM) amounted to 6%. In data set [2], the IC50 stood at 826 nM. Besides, in data set [4], the inhibition in vivo at 3 mg/kg came to 0%.

Consider `CC(C)CSc1c(-c2ccc(S(C)(=O)=O)cc2)cnn(-c2cccc(Cl)c2)c1=O` [Example 361, 2-(3-Chlorophenyl)-4-[2-(methylpropyl)thiol]-5-[4-(methylsulfonyl)phenyl]-3(2H)-pyridazinone], for which, in data set [1] (100 μM), the inhibition at 100 µM came to 3%. In addition, in data set [2], the IC50 is 11 nM. Further, the inhibition in vivo at 3 mg/kg in data set [4] amounted to 65%.

For `Cc1cc(-c2c(-c3ccc(S(N)(=O)=O)cc3)cnn(-c3ccc(F)cc3)c2=O)ccc1F` [Example 390], the “RHUCX1 % Inh. at Dose (μM)” value in data set [1] (1 μM) is 45 @ 1%; in data set [1] (10 μM) it was 88 @ 10%. For the same compound, the “RHUCX2 % Inh. at Dose (μM)” value in data set [2] (0.1 μM) was 60 @ 0.1%; in data set [2] (1 μM), 72 @ 1%; in data set [2] (10 μM) it was 99 @ 10%. Also, the “CAP % Inhib. @ 3 mpk” value in data set [4] was 60%.

Regarding `Cc1cc(-c2c(-c3ccc(S(N)(=O)=O)cc3)cnn(-c3cccc(Cl)c3)c2=O)ccc1F` [Example 391, 2-(3-Chlorophenyl)-4-(4-fluoro-3-methylphenyl)-5-[4-(aminosulfonpl)phenyl]-3(2h)-pyridazinone], the “CAP % Inhib. @ 3 mpk” value in data set [4] was determined as 61%.

`CC(C)COc1c(-c2ccc(S(N)(=O)=O)cc2)cnn(-c2cccc(Cl)c2)c1=O` [Example 395, 2-(3-Chlorophenyl)-4-(2-methylpropoxy)-5-[4-(aminosulfonyl)phenyl]-3(2H)-pyridazinone] registered a melting point of 80 to 85 °C. For the same compound, in data set [1] (10 μM), the inhibition at 10 µM is 35%. The inhibition at 100 µM in data set [1] (100 μM) worked out at 91%. Moreover, the inhibition at 0.01 µM in data set [2] (0.01 μM) was 34%. Besides, the inhibition at 0.1 µM in data set [2] (0.1 μM) amounted to 77%. For the same compound, the inhibition at 1 µM in data set [2] (1 μM) is 93%. Further, in data set [4], the inhibition in vivo at 3 mg/kg was 71%.

Compound `CC(C)CCc1c(-c2ccc(S(N)(=O)=O)cc2)cnn(-c2ccc(F)c(Cl)c2)c1=O` [Example 405, 2-(3-Chloro-4-fluorophenyl)-4-(3-methylbutyl)-5-[4-(aminosulfonyl)phenyl]-3(2H)-pyridazinone] gave a melting point of 154 to 156 °C. Also, in data set [1] (10 μM), the inhibition at 10 µM was determined as 61%. Also, the inhibition at 100 µM in data set [1] (100 μM) came out at 90%. Further, in data set [2], the IC50 amounted to 198 nM. In addition, in data set [4], the inhibition in vivo at 3 mg/kg came out at 53%.

On to `NS(=O)(=O)c1ccc(-c2cnn(-c3ccc(F)c(F)c3)c(=O)c2Oc2ccc(F)cc2)cc1F` [Example 407], for which the melting point lay in the range of 224 to 226 °C. In addition, the inhibition at 100 µM in data set [1] (100 μM) turned out to be 32%. The IC50 in data set [2] stood at 170 nM. Further, the inhibition in vivo at 3 mg/kg in data set [4] was found to be 61%.

In turn, `CS(=O)(=O)c1ccc(-c2cnn(-c3cccc(Cl)c3)c(=O)c2OCCC2CC2)cc1` [Example 419, 2-(3-Chlorophenyl)-4-(2-cyclopropane-1-ethoxy)-5-[4-(methylsulfonyl)phenyl]-3(2H)-pyridazinone] returned a melting point of 124 to 128 °C. Also, the inhibition at 100 µM in data set [1] (100 μM) worked out at 12%. The IC50 in data set [2] was determined as 100 nM. Moreover, the inhibition in vivo at 3 mg/kg in data set [4] stood at 48%.

With `C=C(C)CCOc1c(-c2ccc(S(C)(=O)=O)cc2)cnn(-c2cccc(Cl)c2)c1=O` [Example 427, 2-(3-Chlorophenyl)-4-(3-methyl-3-butenoxy)-5-[4-(methylsulfonyl)phenyl]-3(2H)-pyridazinone], the melting point lay in the range of 110 to 112 °C. For the same compound, the inhibition in vivo at 3 mg/kg in data set [4] worked out at 78%.

With `CC(C)(O)COc1c(-c2ccc(S(N)(=O)=O)cc2)cnn(-c2ccc(F)c(F)c2)c1=O` [Example 459], the “CAP % Inhib. @ 3 mpk” value in data set [4] was 45%.

For the compound `C[C@@H](CO)COc1c(-c2ccc(S(N)(=O)=O)cc2)cnn(-c2ccc(F)c(F)c2)c1=O` [Example 464, (S)-2-(3,4-Difluorophenyl)-4-(3-hydroxy-2-methyl-1-propoxy)-5-[4-(aminosulfonyl)phenyl]-3(2H)-pyridazinone], in data set [4], the inhibition in vivo at 3 mg/kg stood at 70%.
